Measured values reported in patent publication US6685617B1, “Inhibitors of α4β1 mediated cell adhesion” (Pharmacia & Upjohn Company, priority 1998, dated 2004).

Key:
[1] = biological target: T1, α4β1 integrin (Jurkat cell adhesion to immobilized CS-1 derived peptide CLHPGEILDVPST) (Homo sapiens, UniProt P05556+P13612); test: Jurkat-CS-1 assay; format: cell-based; conditions: Jurkat cells on CS-1 peptide coated plates; read-out: JK/CS-1 (Jurkat CS-1 Assay IC50 value range)
T1 construct: 100 μl of Jurkat cells (2.5×10^6 cells/ml) in DMEM plus BSA; host or cells: Jurkat T-cell line
T1 sequence (P13612 34-1032): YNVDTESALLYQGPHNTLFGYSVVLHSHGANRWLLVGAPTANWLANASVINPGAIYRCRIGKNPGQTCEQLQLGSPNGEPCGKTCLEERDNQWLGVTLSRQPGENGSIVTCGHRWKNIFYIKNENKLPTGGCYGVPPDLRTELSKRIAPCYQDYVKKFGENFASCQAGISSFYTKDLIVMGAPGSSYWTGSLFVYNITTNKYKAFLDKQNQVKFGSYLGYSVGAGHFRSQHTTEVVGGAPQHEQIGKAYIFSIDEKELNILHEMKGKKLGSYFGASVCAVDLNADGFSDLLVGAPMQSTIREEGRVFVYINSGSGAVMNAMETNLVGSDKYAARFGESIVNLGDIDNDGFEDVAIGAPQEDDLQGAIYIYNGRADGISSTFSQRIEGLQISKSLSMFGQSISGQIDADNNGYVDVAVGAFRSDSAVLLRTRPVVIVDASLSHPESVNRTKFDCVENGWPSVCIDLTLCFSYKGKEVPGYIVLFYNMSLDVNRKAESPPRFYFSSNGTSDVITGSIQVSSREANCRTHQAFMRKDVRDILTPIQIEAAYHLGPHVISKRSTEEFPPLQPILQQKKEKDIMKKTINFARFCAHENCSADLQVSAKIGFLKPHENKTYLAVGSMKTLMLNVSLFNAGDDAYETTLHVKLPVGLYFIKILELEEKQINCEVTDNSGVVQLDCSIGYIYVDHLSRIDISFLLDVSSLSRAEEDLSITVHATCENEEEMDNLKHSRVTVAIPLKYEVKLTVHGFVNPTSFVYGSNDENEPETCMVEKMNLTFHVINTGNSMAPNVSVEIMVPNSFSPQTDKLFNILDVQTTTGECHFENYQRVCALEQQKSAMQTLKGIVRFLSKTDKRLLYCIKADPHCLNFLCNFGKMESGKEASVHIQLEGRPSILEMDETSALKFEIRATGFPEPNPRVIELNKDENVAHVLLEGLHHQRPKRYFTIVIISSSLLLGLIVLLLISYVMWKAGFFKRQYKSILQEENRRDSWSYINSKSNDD
T1 sequence (P05556 21-798): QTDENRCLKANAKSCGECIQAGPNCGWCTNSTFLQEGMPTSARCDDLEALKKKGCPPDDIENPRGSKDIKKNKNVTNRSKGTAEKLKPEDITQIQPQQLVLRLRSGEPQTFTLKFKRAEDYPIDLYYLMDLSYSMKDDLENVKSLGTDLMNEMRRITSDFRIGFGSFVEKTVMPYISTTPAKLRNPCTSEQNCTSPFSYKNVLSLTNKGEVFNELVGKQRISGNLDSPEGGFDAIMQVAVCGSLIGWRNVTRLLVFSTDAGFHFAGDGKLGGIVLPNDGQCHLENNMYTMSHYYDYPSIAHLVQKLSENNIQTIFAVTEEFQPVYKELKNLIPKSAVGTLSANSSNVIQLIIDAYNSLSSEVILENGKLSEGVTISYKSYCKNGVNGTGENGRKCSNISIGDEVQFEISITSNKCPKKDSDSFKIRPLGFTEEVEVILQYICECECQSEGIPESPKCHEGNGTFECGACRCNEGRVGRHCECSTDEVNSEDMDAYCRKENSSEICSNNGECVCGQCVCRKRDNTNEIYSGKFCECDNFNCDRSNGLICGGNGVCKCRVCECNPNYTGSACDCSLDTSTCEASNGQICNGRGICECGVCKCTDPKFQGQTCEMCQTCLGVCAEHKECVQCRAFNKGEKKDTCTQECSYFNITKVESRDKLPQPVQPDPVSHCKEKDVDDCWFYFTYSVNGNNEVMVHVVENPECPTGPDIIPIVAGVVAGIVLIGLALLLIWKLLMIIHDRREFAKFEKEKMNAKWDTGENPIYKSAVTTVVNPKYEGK
How it was run: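 CS-1 peptide was SPDP-crosslinked onto HSA-coated plates and blocked with BSA. Jurkat cells (2.5×10^6 cells/ml) in DMEM/BSA were mixed with compound, generally at 100, 20, 5 and 1.25 μM, and allowed to adhere for 1 hr at 37° C. Bound cells were fixed, stained with toluidine blue and quantified by OD590.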

[2] = biological target: T2, α4β1 integrin (Jurkat T-cell adhesion to IL-1 stimulated endothelial cell monolayers) (Homo sapiens, UniProt P05556+P13612); test: Jurkat-endothelial cell adhesion assay (Jurkat EC); format: cell-based; conditions: Jurkat cells on IL-1 stimulated human umbilical vein endothelial cells; read-out: JK/EC (Jurkat EC Assay IC50 value range)
T2 construct: a T-cell line, Jurkat, known to express the α4β1 integrin; host or cells: Jurkat T-cell line
T2 sequence (P13612 34-1032): as the sequence (P13612 34-1032) above
T2 sequence (P05556 21-798): as the sequence (P05556 21-798) above
How it was run: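 Adhesion was expressed as percent of compound-free fluorescence after 20 min at 37° C (following 5 min settling on ice) of BCECF-loaded Jurkat T cells on washed HUVEC monolayers. The endothelium, passage 6 or lower, had received 0.1 ng/ml recombinant IL-1 for 4 hr at 37° C; compound was premixed with the T cells, typically at 100, 20, 5 and 1.25 μM.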

IC50 [1] | IC50 [2] | SMILES
50 to 750 nM | ≥ 1000 nM | NC(=O)[C@H](Cc1ccc(OCc2c(Cl)cccc2Cl)cc1)NC(=O)[C@H]1CSCN1C(=O)OCCN1CCOCC1 (relative stereo) [Example 89, [S-(R*,R*)]-4-[[[1-[[4-[(2,6-Dichlorophenyl)methoxy]phenyl]methyl]-2-amino-2-oxoethyl]amino]carbonyl]-3-thiazolidinecarboxylic Acid 3-[2-(4-morpholinyl)ethyl]ester]
≤ 50 nM | ≤ 250 nM | O=C(O)CCC(=O)N1CCSC[C@H]1C(=O)N[C@@H](Cc1ccc(NC(=O)c2c(Cl)cccc2Cl)cc1)C(=O)O (relative stereo) [Example 99, [R-(R*,S*)]-3-[[[1-Carboxy-2-[4-[(2,6-dichlorobenzoyl)amino]phenyl]ethyl]amino]carbonyl]-γ-oxo-4-thiomorpholinebutanoic Acid]
50 to 750 nM | 250 to 1000 nM | CC(C)(C)OC(=O)N1CCSC[C@H]1C(=O)N[C@@H](Cc1ccc(NC(=O)c2c(Cl)cccc2Cl)cc1)C(=O)O (relative stereo) [Example 100, [R-(R*,S*)]-3-[[[1-Carboxy-2-[4-[(2,6-dichlorobenzoyl)amino]phenyl]ethyl]amino]carbonyl]-4-thiomorpholinecarboxylic Acid 4-(1,1-Dimethylethyl)ester]
≤ 50 nM | ≤ 250 nM | COC(=O)[C@H](Cc1ccc(NC(=O)c2c(Cl)cccc2Cl)cc1)NC(=O)[C@H]1CSCN1C(=O)OCc1ccccn1 (relative stereo) [Example 148, [S-(R*,R*)]-4-[[[1-[[4-[(2,6-Dichlorobenzoyl)amino]phenyl]methyl]-2-methoxy-2-oxoethyl]amino]carbonyl]-3-thiazolidinecarboxylic Acid 3-(2-Pyridinylmethyl)ester]
≤ 50 nM | ≤ 250 nM | O=C(Nc1ccc(C[C@H](NC(=O)[C@H]2CSCN2C(=O)OCc2ccccn2)C(=O)O)cc1)c1c(Cl)cccc1Cl (relative stereo) [Example 149, [S-(R*,R*)]-4-[[[-Carboxy-2-[4-[(2,6-dichlorobenzoyl)amino]phenyl]ethyl]amino]carbonyl]-3-thiazolidinecarboxylic Acid 3-(2-pyridinylmethyl)ester]
50 to 750 nM | 250 to 1000 nM | COC(=O)[C@H](Cc1ccc(NC(=O)c2c(Cl)cccc2Cl)cc1)NC(=O)[C@H]1CSCN1C(=O)CCCC(=O)O (relative stereo) [Example 150, [S-(R*,R*)]-4-[[[1-[[4-[(2,6-Dichlorobenzoyl)amino]phenyl]methyl]-2-methoxy-2-oxoethyl]amino]carbonyl]-δ-oxo-3-thiazoidinepentanoic Acid]
≤ 50 nM | ≤ 250 nM | COC(=O)CCCC(=O)N1CSC[C@@H]1C(=O)N[C@@H](Cc1ccc(NC(=O)c2c(Cl)cccc2Cl)cc1)C(=O)O (relative stereo) [Example 151, [S-(R*,R*)]-4-[[[1-Carboxy-2-[4-[(2,6-dichlorobenzoyl)amino]phenyl]ethyl]amino]carbonyl]-δ-oxo-3-thiazoidinepentanoic Acid Methyl Ester]
≤ 50 nM | ≤ 250 nM | O=C(O)[C@H](Cc1ccc(OCc2c(Cl)cccc2Cl)cc1)NC(=O)[C@H]1CSCN1C(=O)OCCN1CCCCC1 (relative stereo) [Example 152, [S-(R*,R*)]-4-[[[1-Carboxy-2-[4-[(2,6-dichlorophenyl)methoxy]phenyl]ethyl]amino]carbonyl]-3-thiazolidinecarboxylic Acid 3-[2-(1-Piperidinyl)ethyl]ester]
≥ 750 nM | ≥ 1000 nM | CCOC(=O)N1[C@@H](C(=O)N[C@@H](Cc2ccc(OCc3c(Cl)cccc3Cl)cc2)C(=O)O)CSC12CCN(C)CC2 (relative stereo) [Example 155, [S-(R*,R*)]-3-[[[1-Carboxy-2-[4-[(2,6-dichlorophenyl)methoxy]phenyl]ethyl]amino]carbonyl]-8-methyl-1-thia-4,8-diazaspiro[4.5]decane-4-carboxylic Acid 4-Ethyl Ester]
50 to 750 nM | ≤ 250 nM | O=C(O)CCC(=O)N1CCCCC[C@H]1C(=O)N[C@@H](Cc1ccc(NC(=O)c2c(Cl)cccc2Cl)cc1)C(=O)O (relative stereo) [Example 157, [S-(R*,R*)]-2-[[[1-Carboxy-2-[4-[(2,6-dichlorobenzoyl)amino]phenyl]ethyl]amino]carbonyl]-hexahydro-γ-oxo-1H-azepine-1-butanoic Acid]
≥ 750 nM | ≥ 1000 nM | CCOC(=O)N1[C@@H](C(=O)N[C@@H](Cc2ccc(OCc3c(Cl)cccc3Cl)cc2)C(=O)O)CSC12CCCC2 (relative stereo) [Example 161, [S-(R*,R*)]-3-[[[1Carboxy-2-[4-[(2,6-dichlorophenyl)methoxy]phenylethyl]amino]carbonyl]-1-thia-4-azapiro[4.4]nonane-4-carboxylic Acid 4-Ethyl Ester]
≥ 750 nM | ≥ 1000 nM | CC(c1ccccc1)N1C(C(=O)O)CC1C(=O)NC(Cc1ccc(NC(=O)c2c(Cl)cccc2Cl)cc1)C(=O)O (single isomer, unassigned) [Example 133]
50 to 750 nM | ≥ 1000 nM | CC(c1ccccc1)N1C(C(=O)O)CC1C(=O)NC(Cc1ccc(NC(=O)c2c(Cl)cccc2Cl)cc1)C(=O)O (single isomer, unassigned) [Example 139]
≥ 750 nM | ≥ 1000 nM | COC(=O)[C@H](Cc1ccc(NC(=O)c2c(Cl)cccc2Cl)cc1)NC(=O)[C@@H]1CSCN1C(=O)OC(C)(C)C (stereo in doubt) [Example 13, [R-(R*,S*)]-4-[[[1-[[4-[(2,6-Dichlorobenzoyl)amino]phenyl]methyl]-2-methoxy-2-oxoethyl]amino]carbonyl]-3-thiazolidinecarboxylic Acid 3-(1,1-Dimethylethyl)ester]
50 to 750 nM | 250 to 1000 nM | CC(C)(C)OC(=O)N1CSC[C@H]1C(=O)N[C@@H](Cc1ccc(NC(=O)c2c(Cl)cccc2Cl)cc1)C(=O)O (stereo in doubt) [Example 14, [R-(R*,S*)]-4-[[[1-Carboxy-2-[4-[(2,6-dichlorobenzoyl)amino]phenyl]ethyl]amino]carbonyl]-3-thiazolidinecarboxylic Acid 3-(1,1-Dimethylethyl)ester]
≥ 750 nM | ≥ 1000 nM | COC(=O)[C@@H](Cc1ccc(NC(=O)c2c(Cl)cccc2Cl)cc1)NC(=O)[C@H]1CSCN1C(=O)OC(C)(C)C (stereo in doubt) [Example 26, [S-(R*,S*)]-4-[[[1-[4-[(2,6-Dichlorobenzoyl)amino]phenyl]methyl]-2-methoxy-2-oxoethyl]amino]carbonyl]-3-thiazolidinecarboxylic Acid 3-1,1-Dimethylethyl)ester]
≥ 750 nM | ≥ 1000 nM | CC(C)(C)OC(=O)N1CSC[C@@H]1C(=O)N[C@H](Cc1ccc(NC(=O)c2c(Cl)cccc2Cl)cc1)C(=O)O (stereo in doubt) [Example 27, [S-(R*,S*)]-4-[[[1-Carboxy-2-[4-[(2,6-dichlorobenzoyl)amino]phenyl]ethyl]amino]carbonyl]-3-thiazolidinecarboxylic Acid 3-(1,1-Dimethylethyl)ester]
50 to 750 nM | ≥ 1000 nM | O=C(O)CCC(=O)N1CCSCC1C(=O)N[C@@H](Cc1ccc(OCc2c(Cl)cccc2Cl)cc1)C(=O)O (stereo in doubt) [Example 105, [R-(R*,S*)]-3-[[[1-Carboxy-2-[4-[(2,6-dichlorophenyl)methoxy]phenyl]ethyl]amino]carbonyl]-γ-oxo-4-thiomorpholinebutanoic Acid]
